Test results as given in patent US20070299103A1, “[1,2,4]Triazolo[4,3-A]Pyridine Derivatives for the Treatment of Hyperproliferative Diseases” (priority 2004, published 2007).

Columns and labels:
[1] = system: human melanoma Mel5 cells; experiment: Tumor cell proliferation assay (ATP Lite), Mel5; type: cell-based; details: 4 days incubation
Procedure: (§1) Murine colon C26, human melanoma A375 and human melanoma Mel5 cells were plated in 96 well Corning white plates (1500 cells/well for C26, and 2000 cells/well for A375, and MiaPaCa-2) and cultured overnight at 37° C. in 5% CO2. Inhibitors were serially diluted in 100% DMSO and subsequently added to cells to reach a final concentration of 0.25% DMSO. The cells were incubated for 4 days in the presence of test compounds in cell growth media (DMEM with 10% fetal bovine serum, 2 mM glutamine for C26, and MiaPaCa-2, and RPMI with 10% fetal bovine serum, 2 mM glutamine for A375). Cell proliferation was quantitated using the ATP lite cell proliferation kit (Packard). Columns 2-4 show the concentration of compounds required to induce 50% cell death (IC50 in μM) of human endometriotic cells. With “+” meaning 100 μM<IC50≦10 μM and “++” IC50≦1 μM and “n.d.” means not determined.

[2] = system: human melanoma A375 cells; experiment: Tumor cell proliferation assay (ATP Lite), A375; type: cell-based; details: 4 days incubation
Procedure: as §1

Murine colon C26 cells = experiment: Tumor cell proliferation assay (ATP Lite), C26; type: cell-based; details: 4 days incubation
Procedure: as §1

human MEK1 = human MEK1 (Homo sapiens, UniProt Q02750); experiment: Inhibition of human MEK1 kinase activity, TR-FRET assay; type: biochemical; details: 100 nM MEK1, 15 μM ATP, 300 nM ERK2, two hours; read-out: Inhibition of MEK, Activity (IC50)
Procedure: The activity of the compounds of the present invitation may be determined by the following procedure: Inhibition of human MEK1 kinase activity was monitored with a homogenous, fluorescence based assay. The assay uses time resolved fluorescence resonance energy transfer to probe for phosphorylation of ERK1 by MEK1. The assay is carried out in low volume 96 well microtiterplates. In a total volume of 15 μl, compounds are incubated with 100 nM MEK1, 15 μM ATP, 300 nM ERK2 employing a buffer containing 20 mM TRIS/HCl, 10 mM MgCl2, 100 μM NaVO4, 1 mM DTT, and 0.005% Tween 20 (pH 7.4). After two hours, 5 nM Europium-anti-PY20 (Perkin Elmer) and 50 nM Anti-GST-Allophycocyanin (CisBio) in buffer containing 50 mM EDTA and 0.05% BSA are added and the reaction incubated for one hour in the dark. Time-resolved fluorescence is measured using a LJL-Analyst (Molecular Devices) with an excitation wavelength of 340 nm and an emission wavelength of 665 nm. The final concentration of DMSO is 2%. To assess the inhibitory potential of the compounds, IC50-values were determined.
The following compounds exemplify such activity with “+” meaning 1 μM<IC50≦10 μM and “++” IC50≦1 μM

[3] = Microsomal stability assay, rat liver microsomes; type: in vitro ADME; details: male, Sprague Dawley, pooled rat liver microsomes, pH 7.4; 3 μM compound, 0.5 mg/ml rat liver microsomes, 37° C., 2 mM NADPH; read-out: RLM t½
Procedure: (§2) Compounds were tested on their stability in human, rat and mouse liver microsomal preparations (HLM, RLM and MLM respectively). At a final concentration of 3 μM, compounds were incubated at 37° C. with 0.5 mg/ml human, rat or mouse liver microsomes in a buffer containing 50 mM phosphate, pH 7.4 and 2 mM NADPH. Pooled human liver microsomes or pooled male rat liver microsomes (Sprague Dawley) were obtained from NatuTec (Frankfurt, Germany). Incubations without NADPH served as negative controls. Reactions were stopped after 0, 15, 30, 45 or 60 min by the addition of acetonitrile and microsomes were pelleted by centrifugation (10 min at 6200×g). Supernatants were analyzed by HPLC regarding the concentration of mother compound. Finally, the half-life of compounds in the regarding microsomal preparation was calculated.

Caco-2 cells = experiment: Caco-2 permeability assay; type: in vitro ADME; details: 10 μM, pH 7.4, 120 minutes
Procedure: Caco-2 cells obtained from the ATCC at passage number 27 are used. Cells (passage number 40-60) were seeded on to Millipore Multiscreen Caco-2 plates or Falcon HTS inserts at 1×10^5 cells/cm2. Cells were cultured for 20 days in DMEM and media was changed every two or three days. On day 20 the permeability study was performed.
Permeability was studied by applying compound to the apical surface of cell monolayers and measuring compound permeation into the basolateral compartment. The experiment was also performed in the reverse direction (B-A) to investigate active transport. […]
HBSS was then removed from the apical compartment and replaced with test compound dosing solutions. […] Test compound permeability was assessed in duplicate. […]
The integrity of the monolayers throughout the experiment is checked by monitoring lucifer yellow permeation using fluorimetric analysis. […] Test and control compounds were quantified by LC-MS/MS cassette analysis using a 5-point calibration with appropriate dilution of the samples. […]
The permeability coefficient for each compound (Papp) was calculated from the following equation: Papp=[dQ/dt]/[C0×A] […]
Wherein “+” means a caco A-B and caco B-A value of 1-10 and “++” means a caco A-B and caco B-A value of 11-100 and “n.d.” means not determined.

[4] = Microsomal stability assay, human liver microsomes; type: in vitro ADME; details: pooled human liver microsomes, pH 7.4; 3 μM compound, 0.5 mg/ml human liver microsomes, 37° C., 2 mM NADPH; read-out: HLM t½
Procedure: as §2

Tumors = details: patients; cited from earlier work
[5] = in vivo; cited from earlier work

Sequence of human MEK1 (Q02750 whole entry): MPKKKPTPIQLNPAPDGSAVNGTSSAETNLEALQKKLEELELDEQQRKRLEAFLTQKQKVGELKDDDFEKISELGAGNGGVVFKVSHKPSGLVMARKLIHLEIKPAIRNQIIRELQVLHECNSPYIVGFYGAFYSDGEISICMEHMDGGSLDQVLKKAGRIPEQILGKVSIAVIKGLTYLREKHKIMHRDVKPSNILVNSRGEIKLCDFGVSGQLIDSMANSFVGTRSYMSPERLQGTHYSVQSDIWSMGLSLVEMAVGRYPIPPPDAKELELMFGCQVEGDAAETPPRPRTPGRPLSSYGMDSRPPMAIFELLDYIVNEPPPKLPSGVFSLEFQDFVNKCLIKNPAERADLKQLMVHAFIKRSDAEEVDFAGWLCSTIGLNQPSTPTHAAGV

Row | Mel5 cells IC50 [1] | A375 cells IC50 [2] | C26 cells IC50 (Murine colon C26 cells) | IC50 (human MEK1) [nM] | half-life at 3 μM [3] [h] | half-life at 3 μM [4] [h] | SMILES | Caco A-B (Caco-2 cells; apical to basolateral) | Caco B-A (Caco-2 cells; basolateral to apical) | efficacy in clinical phase II trials (Tumors) | bioavailability [5]
1 | + (100 μM<IC50≦10 μM) | + (100 μM<IC50≦10 μM) | + (100 μM<IC50≦10 μM) | ≤ 1000 | – | – | Cc1cc(Br)ccc1Nc1cc2nnc(C)n2cc1C(=O)NO [Compound 3a, 7-[(4-Bromo-2-methylphenyl)amino]-N-hydroxy-3-methyl[1,2Z4]triazolo[4,3-a]pyridine-6-carboxamide] | – | – | – | –
2 | + (100 μM<IC50≦10 μM) | + (100 μM<IC50≦10 μM) | + (100 μM<IC50≦10 μM) | 1000 to 10000 | > 2 | > 2 | Cc1cc(Br)ccc1Nc1cc2nnc(C)n2cc1C(=O)NOC[C@@H](O)CO [Compound 3b, 7-[(4-Bromo-2-methylphenyl)amino]-N-([(2S)-2,3-dihydroxypropyl]oxy)-3-methyl[1,2,4]triazolo[4,3-a]pyridine-6-carboxamide] | + (a caco A-B and caco B-A value of 1-10) | + (a caco A-B and caco B-A value of 1-10) | – | –
3 | – | – | – | ≤ 1000 | – | – | Cc1cc(I)ccc1Nc1cc2nnc(C)n2cc1C(=O)NOC[C@H](O)CO [Compound 3c, 7-[(4-Iodo-2-methylphenyl)amino]-N-([(2R)-2,3-dihydroxypropyl]oxy)-3-methyl[1,2,4]triazolo[4,3-a]pyridine-6-carboxamide] | – | – | – | –

The next lines start with the molecule.

Row | SMILES | Mel5 cells IC50 [1] | A375 cells IC50 [2] | C26 cells IC50 (Murine colon C26 cells) | IC50 (human MEK1) [nM] | half-life at 3 μM [3] [h] | half-life at 3 μM [4] [h] | Caco A-B (Caco-2 cells; apical to basolateral) | Caco B-A (Caco-2 cells; basolateral to apical) | efficacy in clinical phase II trials (Tumors) | bioavailability [5]
4 | Cc1cc(Br)ccc1Nc1cc2nnc(C)n2cc1C(=O)O [Compound 2a, 7-[(4-Bromo-2-methylphenyl)amino]-3-methyl[1,2,4]triazolo[4,3-a]pyridine-6-carboxylic acid] | + (100 μM<IC50≦10 μM) | + (100 μM<IC50≦10 μM) | + (100 μM<IC50≦10 μM) | 1000 to 10000 | – | – | – | – | – | –
5 | O=C(NOCC1CC1)c1ccc(F)c(F)c1Nc1ccc(I)cc1Cl [PD-184352] | – | – | – | – | – | – | – | – | lacking efficacy | low bioavailability
